Laboratory results from patent publication US6544985B2, “Dihydro-benzo [b][1,4]diazepin-2-one derivatives” (Hoffman-La Roche Inc., priority 2001, dated 2003).
pKi: −log10 of the molar value.

Tests used:
[1] = molecular target: T1, recombinant rat mGluR2 expressed in CHO cells (Rattus norvegicus, UniProt P31421); assay: [3H]-LY354740 binding on mGlu2 transfected CHO cell membranes (displacement binding assay)
T1 construct: expressed in transfected cells; vector pcDNA I-amp, construct pcD1mGR2
T1 sequence (P31421 19-872): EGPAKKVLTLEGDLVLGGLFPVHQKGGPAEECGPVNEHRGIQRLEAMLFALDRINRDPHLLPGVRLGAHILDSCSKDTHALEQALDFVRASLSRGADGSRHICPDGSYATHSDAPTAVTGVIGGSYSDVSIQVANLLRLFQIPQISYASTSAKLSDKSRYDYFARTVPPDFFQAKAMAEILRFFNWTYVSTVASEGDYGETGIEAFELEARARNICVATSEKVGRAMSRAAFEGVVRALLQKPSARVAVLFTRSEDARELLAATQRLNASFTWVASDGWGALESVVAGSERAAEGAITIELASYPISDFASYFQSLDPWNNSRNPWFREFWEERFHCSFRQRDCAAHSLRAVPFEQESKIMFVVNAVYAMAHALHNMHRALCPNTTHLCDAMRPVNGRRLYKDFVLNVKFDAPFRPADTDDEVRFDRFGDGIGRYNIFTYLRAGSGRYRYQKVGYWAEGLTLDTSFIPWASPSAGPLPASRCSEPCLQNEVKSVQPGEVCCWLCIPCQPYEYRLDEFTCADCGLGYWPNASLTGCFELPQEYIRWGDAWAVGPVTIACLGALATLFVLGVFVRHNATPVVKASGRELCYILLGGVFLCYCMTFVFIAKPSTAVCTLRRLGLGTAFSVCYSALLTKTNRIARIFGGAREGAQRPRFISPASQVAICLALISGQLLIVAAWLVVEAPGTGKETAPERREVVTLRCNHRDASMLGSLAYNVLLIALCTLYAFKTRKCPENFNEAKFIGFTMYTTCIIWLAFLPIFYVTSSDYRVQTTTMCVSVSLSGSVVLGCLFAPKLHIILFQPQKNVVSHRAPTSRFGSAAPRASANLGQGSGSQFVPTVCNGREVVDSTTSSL

| Compound | pKi [1] | melting point |
| --- | --- | --- |
| COCCN(C)c1cc2c(cc1Cl)NC(=O)CC(c1cccc(-c3cc(C)no3)c1)=N2 [Example 11] | 7.60 | 182 °C |
| CCN(CC)c1cc2c(cc1C#N)NC(=O)CC(c1cccc(-c3cc(C)no3)c1)=N2 [Example 107, 8-Diethylamino-2-[3-(3-methyl-isoxazol-5-yl)-phenyl]-4-oxo-4,5-dihydro-3H-benzo[b][1,4]diazepine-7-carbonitrile] | 8.05 | 191 °C |
| CN(C)c1cc2c(cc1C(F)(F)F)NC(=O)CC(c1cccc(-c3nnc(CO)s3)c1)=N2 [Example 204, 7-Dimethylamino-4-[3-(5-hydroxymethyl-[1,3,4]thiadiazol-2-yl)-phenyl]-8-trifluoromethyl-1,3-dihydro-benzo[b][1,4]diazepin-2-one] | 7.77 | 242 to 246 °C |
| CN(C)c1cc2c(cc1Cl)NC(=O)CC(c1cccc(-c3nc(CO)co3)c1)=N2 [Example 27, 8-Chloro-7-dimethylamino-4-[3-(4-hydroxymethyl-oxazol-2-yl)-phenyl]-1,3-dihydro-benzo[b][1,4]diazepin-2-one] | 7.41 | 193 to 195 °C |
| CN(C)c1cc2c(cc1Cl)NC(=O)CC(c1cccc(-c3ccnn3C)c1)=N2 [Example 16, 8-Chloro-7-dimethylamino-4-[3-(2-methyl-2H-pyrazol-3-yl)-phenyl]-1,3-dihydro-benzo[b][1,4]diazepin-2-one] | 7.64 | 225 °C |
| CN(CC1CC1)c1cc2c(cc1C(F)(F)F)NC(=O)CC(c1ccnc(C#N)c1)=N2 [Example 78, 4-[8-(Cyclopropylmethyl-methyl-amino)-4-oxo-7-trifluoromethyl-4,5-dihydro-3H-benzo[b][1,4]diazepin-2-yl]-pyridine-2-carbonitrile] | 8.30 | 155 °C |
| O=C1CC(c2cccc(-n3nncc3CO)c2)=Nc2cc(N3CCCC3)c(Cl)cc2N1 [Example 32, 8-Chloro-4-[3-(5-hydroxymethyl-[1,2,3]triazol-1-yl)-phenyl]-7-pyrrolidin-1-yl-1,3-dihydro-benzo[b][1,4]diazepin-2-one] | 7.72 | 193 to 197 °C |
| CC(C)CN(C)c1cc2c(cc1C(F)(F)F)NC(=O)CC(c1cccc(-n3cncn3)c1)=N2 [Example 174, 7-(Isobutyl-methyl-amino)-4-(3-[1,2,4]triazol-1-yl-phenyl)-8-trifluoromethyl-1,3-dihydro-benzo[b][1,4]diazepin-2-one] | 7.92 | 198 °C |
| CCCN(C)c1cc2c(cc1C(F)(F)F)NC(=O)CC(c1cccc(-n3cncn3)c1)=N2 [Example 169] | 7.57 | 185 °C |
| CCCN(C)c1cc2c(cc1Cl)NC(=O)CC(c1cccc(-n3nncc3CN3CCC3)c1)=N2 [Example 122, 4-[3-(5-Azetidin-1-ylmethyl-[1,2,3]triazol-1-yl)-phenyl]-8-chloro-7-(methyl-propyl-amino)-1,3-dihydro-benzo[b][1,4]diazepin-2-one] | 7.82 | 169 °C |
| CCCN(C)c1cc2c(cc1Cl)NC(=O)CC(c1cccc(-n3nncc3CO)c1)=N2 [Example 29, 8-Chloro-7-(methyl-propyl-amino)-4-[3-(5-hydroxymethyl-[1,2,3]triazol-1-yl)-phenyl]-1,3-dihydro-benzo[b][1,4]diazepin-2-one] | 7.52 | 178 °C (dec.) |
| CN(c1cc2c(cc1Cl)NC(=O)CC(c1cccc(-n3nncc3CO)c1)=N2)C1CC1 [Example 37, 8-Chloro-7-(cyclopropyl-methyl-amino)-4-[3-(5-hydroxymethyl-[1,2,3]triazol-1-yl)-phenyl]-1,3-dihydro-benzo[b][1,4]diazepin-2-one] | 6.80 |  |
| CN(C)c1cc2c(cc1C(F)(F)F)NC(=O)CC(c1cccc(-n3nncc3CNC3CC3)c1)=N2 [Example 82, 4-[3-(5-Cyclopropylaminomethyl-[1,2,3]triazol-1-yl)-phenyl]-7-dimethylamino-8-trifluoromethyl-1,3-dihydro-benzo[b][1,4]diazepin-2-one] | 7.31 |  |
| CC(C)N(C)c1cc2c(cc1Cl)NC(=O)CC(c1cccc(-n3nncc3CNC3CC3)c1)=N2 [Example 154, 8-Chloro-4-[3-(5-cyclopropylaminomethyl-[1,2,3]triazol-1-yl)-phenyl]-7-(isopropyl-methyl-amino)-1,3-dihydro-benzo[b][1,4]diazepin-2-one] |  | 144 °C |
| CN(CC1CC1)c1cc2c(cc1C(F)(F)F)NC(=O)CC(c1cccc(-n3nncc3CO)c1)=N2 [Example 77, 7-(Cyclopropylmethyl-methyl-amino)-4-[3-(5-hydroxymethyl-[1,2,3]triazol-1-yl)-phenyl]-8-trifluoromethyl-1,3-dihydro-benzo[b][1,4]diazepin-2-one] |  | 212 °C |
| CN(CC1CC1)c1cc2c(cc1C(F)(F)F)NC(=O)CC(c1cccc(-n3nncc3CNC3CC3)c1)=N2 [Example 80, 4-[3-(5-Cyclopropylaminomethyl-[1,2,3]triazol-1-yl)-phenyl]-7-(cyclopropylmethyl-methyl-amino)-8-trifluoromethyl-1,3-dihydro-benzo[b][1,4]diazepin-2-one] |  | 35 to 46 °C |
| CCCc1sc(CO)nc1-c1cccc(C2=Nc3cc(N(C)C)c(C(F)(F)F)cc3NC(=O)C2)c1 [Example 217, 7-Dimethylamino-4-[3-(2-hydroxymethyl-5-propyl-thiazol-4-yl)-phenyl]-8-trifluoromethyl-1,3-dihydro-benzo[b][1,4]diazepin-2-one] |  | 112 to 114 °C |
| Cc1cc2c(cc1N(C)CC(C)C)N=C(c1cccc(-n3ncnc3CN3CCCC3)c1)CC(=O)N2 [Example 158, 7-(Isobutyl-methyl-amino)-8-methyl-4-[3-(5-pyrrolidin-1-ylmethyl-[1,2,4]triazol-1-yl)-phenyl]-1,3-dihydro-benzo[b][1,4]diazepin-2-one] |  | 164 °C |
| CCCN(C)c1cc2c(cc1C)NC(=O)CC(c1cccc(-n3nncc3CO)c1)=N2 [Example 93, 4-[3-(5-Hydroxymethyl-[1,2,3]triazol-1-yl)-phenyl]-8-methyl-7-(methyl-propyl-amino)-1,3-dihydro-benzo[b][1,4]diazepin-2-one] |  | 186 °C |

Results, then the compound that gave them:

| pKi [1] | melting point | Compound |
| --- | --- | --- |
| 7.36 | 208 °C (dec.) | CCN(CC)c1cc2c(cc1Cl)NC(=O)CC(c1cccc(-n3nncc3CO)c1)=N2 [Example 30, 8-Chloro-7-(diethyl-amino)-4-[3-(5-hydroxymethyl-[1,2,3]triazol-1-yl)-phenyl]-1,3-dihydro-benzo[b][1,4]diazepin-2-one] |
| 8.52 | 135 to 136 °C | CC(C)CN(C)c1cc2c(cc1Cl)NC(=O)CC(c1cccc(-c3nc(CO)cs3)c1)=N2 [Example 186, 8-Chloro-4-[3-(4-hydroxymethyl-thiazol-2-yl)-phenyl]-7-(isobutyl-methyl-amino)-1,3-dihydro-benzo[b][1,4]diazepin-2-one] |
| 7.72 | 192 °C | CSc1nccn1-c1cccc(C2=Nc3cc(N(C)C)c(C(F)(F)F)cc3NC(=O)C2)c1 [Example 71, 7-Dimethylamino-4-[3-(2-methylsulfanyl-imidazol-1-yl)-phenyl]-8-trifluoromethyl-1,3-dihydro-benzo[b][1,4]diazepin-2-one] |
| 7.70 | 201 °C | CC(C)CN(C)c1cc2c(cc1Cl)NC(=O)CC(c1cccc(-n3nncc3CO)c1)=N2 [Example 101, 8-Chloro-4-[3-(5-hydroxymethyl-[1,2,3]triazol-1-yl)-phenyl]-7-(isobutyl-methyl-amino)-1,3-dihydro-benzo[b][1,4]diazepin-2-one] |
| 7.05 | 195 °C | CC(C)CN(C)c1cc2c(cc1Cl)NC(=O)CC(c1cccc(-n3ncnc3CO)c1)=N2 [Example 163, 8-Chloro-4-[3-(5-hydroxymethyl-[1,2,4]triazol-1-yl)-phenyl]-7-(isobutyl-methyl-amino)-1,3-dihydro-benzo[b][1,4]diazepin-2-one] |
| 7.15 | 197 to 199 °C | CN(C)c1cc2c(cc1-c1cccc(F)c1F)NC(=O)CC(c1cccc(-n3ccnn3)c1)=N2 [Example 8, 8-(2,3-Difluoro-phenyl)-7-dimethylamino-4-(3-[1,2,3]triazol-1-yl-phenyl)-1,3-dihydro-benzo[b][1,4]diazepin-2-one] |
| 7.60 | 195 °C | CCCN(C)c1cc2c(cc1C)NC(=O)CC(c1cccc(C#N)c1)=N2 [Example 92, 3-[7-Methyl-8-(methyl-propyl-amino)-4-oxo-4,5-dihydro-3H-benzo[b][1,4]diazepin-2-yl]-benzonitrile] |
|  | 181 °C | CN(C)Cc1cnnn1-c1cccc(C2=Nc3cc(N(C)C)c(F)cc3NC(=O)C2)c1 [Example 43, 7-Dimethylamino-4-[3-(5-dimethylaminomethyl-[1,2,3]triazol-1-yl)-phenyl]-8-fluoro-1,3-dihydro-benzo[b][1,4]diazepin-2-one] |
|  | 199 °C | Cc1cc(-c2cccc(C3=Nc4cc(N(C)C(C)C)c(C(F)(F)F)cc4NC(=O)C3)c2)on1 [Example 120, 7-(Isopropyl-methyl-amino)-4-[3-(3-methyl-isoxazol-5-yl)-phenyl]-8-trifluoromethyl-1,3-dihydro-benzo[b][1,4]diazepin-2-one] |
|  | 251 °C | CN(C)c1cc2c(cc1C#N)NC(=O)CC(c1cccc(C#N)c1)=N2 [Example 91, 2-(3-Cyano-phenyl)-8-dimethylamino-4-oxo-4,5-dihydro-3H-benzo[b][1,4]diazepine-7-carbonitrile] |
|  | 119 °C | COCCN(C)Cc1cnnn1-c1cccc(C2=Nc3cc(N(C)C(C)C)c(Cl)cc3NC(=O)C2)c1 [Example 146, 8-Chloro-7-(isopropyl-methyl-amino)-4-[3-(5-{[(2-methoxy-ethyl)-methyl-amino]-methyl}-[1,2,3]triazol-1-yl)-phenyl]-1,3-dihydro-benzo[b][1,4]diazepin-2-one] |
